From article PMC6009892, “A novel series of pyrazole-platinum(II) complexes as potential anti-cancer agents that induce cell cycle arrest and apoptosis in breast cancer cells” (Journal of Enzyme Inhibition and Medicinal Chemistry, 2018)
Read-outs that look alike come from different tables or passages of the source.

Columns and labels:
Format in all cases: cell-based, human
[1] = test system: MCF-7 breast cancer cells; assay: MTT cell viability assay, MCF-7
Method: (§1) MCF-7, MDA-MB-231 (both human breast cancer cell lines), and fibroblast cells were obtained from American Type Culture Collection (ATCC, Manassas, VA, USA). DMEM and FBS used in a cell culture were from Gibco (USA). Glutamine, penicillin, and streptomycin were obtained from Quality Biologicals Inc. (USA). DMEM media was blended with 50 units/ml of penicillin, 50 μg/ml of streptomycin, 10% of FBS. All cell lines were cultured in 5% CO2 and fully humidified at 37 °C. Cells were cultured in Costar flasks and sub-confluent cells were detached with 0.05% trypsin and 0.02% ethylenediaminetetraacetic acid in calcium-free phosphate-buffered saline (PBS), counted in hemocytometers, and plated at 5 × 10^5 cells/well of six-well plates (Thermo Scientific, New York, NY, USA) in 2 ml of growth medium (DMEM without phenol red with 10% CPSR1). Cells reached about 80% of confluency at day 2, and in most cases such cells were used for the assays.
(§2) The viability of cultured cells was decided through assaying the reduction of MTT to formazan. In brief, MCF-7, MDA-MB-231, and fibroblast cells line were seeded at an initial density of 1 × 10^5 cells per well. Then, the cells were incubated at 37 °C for 24 h. Subsequently, cultured cells were treated with a medium containing concentrations (5, 10, 20, 30, 40, and 50 μM) of PtPz1–PtPz6 for 24 h and 48 h. After the incubation period, MTT was added into all wells in the final concentration of 0.5 mg/ml. After that, the cells were incubated at 37 °C for 4 h. Then, by removing the medium, 200 μl of DMSO was added to all wells. As a result, insoluble formazan was dissolved in DMSO (0.5%). At 570 nm (630 nm as a reference), the absorbance was measured in an Evolution 201 reader (Thermo Scientific, Waltham, MA).

[2] = test system: MDA-MB-231 breast cancer cells; assay: MTT cell viability assay, MDA-MB-231
Method: as §1, §2

fibroblast cells = assay: MTT cell viability assay, fibroblasts
Method: as §1, §2

[3] = test system: MCF-7 breast cancer cells; assay: DNA fragmentation TUNEL assay, MCF-7; details: MCF-7, 20 μM, 24 h; control 4.0%
Method: (§3) DNA fragmentation associated with apoptosis was examined by the terminal deoxynucleotidyltransferase (TdT)- mediated dUTP nick end labeling (TUNEL) method using a commercial assay kit (APO-Direct Kit; BD Pharmingen, San Diego, CA). After treatment, the cells were fixed with 1% paraformaldehyde in PBS (4°C, 30 min), washed in PBS, and permeabilised with ice-cold 70% ethanol. The APO-Direct Kit TUNEL assay was performed as described by the manufacturer. Briefly, the fixed cells were washed twice using the kit wash buffer, and after centrifugation the supernatant was discarded. The DNA labeling solution (containing TdT enzyme and FITC-dUTP) was added to the cell pellet, and the re-suspended mixture was incubated for 1 h at 37°C with occasional shaking. At the end of incubation time, rinse buffer was added, and after centrifugation the supernatant was discarded. We repeated the cell rinsing with rinse buffer, and then suspended the cell pellet in PI/RNase staining buffer. Cells were incubated at room temperature for 30 min and immediately analysed in a BD FACSCanto II flow cytometer. In total, 10,000 events were collected per test sample. The results were analysed with FACSDiva software (both from BD Biosciences Systems, San Jose, CA). The percentage of cells with distinctive apoptotic DNA strand breaks and distinguished by green fluorescent emission was calculated.

[4] = test system: MDA-MB-231 breast cancer cells; assay: DNA fragmentation TUNEL assay, MDA-MB-231; details: MDA-MB-231, 20 μM, 24 h
Method: as §3

[5] = test system: caspase-3 in MDA-MB-231 breast cancer cells; assay: FLICA caspase-3 activity, flow cytometry, MDA-MB-231; details: MDA-MB-231, 20 μM, 24 h
Method: (§4) Caspase-3 activity was measured using the FLICA Caspase 3 Assay Kit (ImmunoChemistry Technologies, Bloomington, MN, USA), according to the manufacturer’s instructions. Briefly, cultured MDA-MB-231 breast cancer cells (1 × 10^6) were washed with cold PBS twice and re-suspended in buffer. We added 5 µl of diluted FLICA reagent and 2 µl of Hoechst 33342 to 93 µl of cell suspension and mixed by pipetting. The cells were incubated for 60 min at 37°C. After incubation, the cells were washed twice in 400 µl of apoptosis wash buffer and centrifuged at 300 × g. After the last wash, we re-suspended the cells in 100 µl of apoptosis wash buffer supplemented with 10 µg/ml PI. Analysis was performed using the BD FACSCanto II flow cytometer, and the results were analysed with FACSDiva software (both from BD Biosciences Systems, San Jose, CA).

[6] = test system: caspase-9 in MCF-7 breast cancer cells; assay: FLICA caspase-9 activity, flow cytometry, MCF-7; details: MCF-7, 20 μM, 24 h
Method: as §4, with “Caspase-9 activity” for “Caspase-3 activity”, “Caspase 9” for “Caspase 3”, “cultured MCF-7 and” for “cultured”, “re-suspended” for “re-suspended the”

[7] = MCF-7, 24 h incubation, 5-50 μM, read-out: IC50 (cell viability, MTT)
[8] = MCF-7, 48 h incubation, 5-50 μM, read-out: IC50 (cell viability, MTT)
[9] = MDA-MB-231, 24 h incubation, 5-50 μM, read-out: IC50 (cell viability, MTT)
[10] = MDA-MB-231, 48 h incubation, 5-50 μM, read-out: IC50 (cell viability, MTT)
[11] = 24 h incubation, 5-50 μM, read-out: IC50 (cell viability, MTT)
[12] = 48 h incubation, 5-50 μM, read-out: IC50 (cell viability, MTT)

Row | SMILES | IC50 [1, 7] [µM] | IC50 [1, 8] [µM] | IC50 [2, 9] [µM] | IC50 [2, 10] [µM] | IC50 (fibroblast cells; [11]) [µM] | IC50 (fibroblast cells; [12]) [µM] | percent of TUNEL positive cells [3] [%] | percent of TUNEL positive cells [4] [%] | increase in caspase-3 activity compared with untreated cells [5] | percent of cells with active caspase-3 [5] [%] | percent of cells with active caspase-9 [6] [%] | IC50 ([1]; read-out: IC50 (additional test for cisplatin), MCF-7, 24 h, additional test in concentrations allowing to determine IC50) [µM] | IC50 ([1]; read-out: IC50 (additional test for cisplatin), MCF-7, 48 h, additional test in concentrations allowing to determine IC50) [µM] | IC50 ([2]; read-out: IC50 (additional test for cisplatin), MDA-MB-231, 24 h, additional test in concentrations allowing to determine IC50) [µM] | IC50 ([2]; read-out: IC50 (additional test for cisplatin), MDA-MB-231, 48 h, additional test in concentrations allowing to determine IC50) [µM] | IC50 (fibroblast cells; read-out: IC50 (additional test for cisplatin), 24 h, additional test in concentrations allowing to determine IC50) [µM] | IC50 (fibroblast cells; read-out: IC50 (additional test for cisplatin), 48 h, additional test in concentrations allowing to determine IC50) [µM]
1 | Cc1cc(C)[n+]([Pt-2]2([n+]3c(C)cc(C)n3CO)[N](c3ccc(C(=N)N)cc3)N=[N+](c3ccc(C(=N)N)cc3)[Pt-2]([n+]3c(C)cc(C)n3CO)([n+]3c(C)cc(C)n3CO)[N](c3ccc(C(=N)N)cc3)N=[N+]2c2ccc(C(=N)N)cc2)n1CO.Cl.Cl.Cl.Cl.O.O [PtPz1, [Pt2(N-hydroxymethyl-3,5-dimethylpyrazole)4(berenil)2]·4HCl·2H2O] | 17 ± 2 | 11 ± 1 | 16 ± 1 | 10 ± 1 | 24 ± 3 | 19 ± 2 | 55.7 | 58.3 | nine-fold increase | 30.6 | 52.8 |  |  |  |  |  | 
2 | Cc1cc(C)[n+]([Pt-2]2([n+]3[nH]c(C)cc3C)[N](c3ccc(C(=N)N)cc3)N=[N+](c3ccc(C(=N)N)cc3)[Pt-2]([n+]3[nH]c(C)cc3C)([n+]3[nH]c(C)cc3C)[N](c3ccc(C(=N)N)cc3)N=[N+]2c2ccc(C(=N)N)cc2)[nH]1.Cl.Cl.Cl.Cl.O.O [PtPz2, [Pt2(3,5-dimethylpyrazole)4(berenil)2]·4HCl·2H2O] | 20 ± 2 | 13 ± 2 | 17 ± 2 | 11 ± 1 | 27 ± 2 | 24 ± 2 | 47.5 | 55.8 | nine-fold increase | 28.9 | 50.5 |  |  |  |  |  | 
3 | N.N.[Cl][Pt][Cl] [cisplatin, reference compound] | > 50 | > 50 | > 50 | > 50 |  | > 50 | 10.9 | 8.9 |  | 6.4 | 8.2 | 93 ± 2 | 78 ± 1 | 82 ± 2 | 72 ± 1 | > 100 | > 100

Continued, in another order:

Row | IC50 [1, 7] [µM] | IC50 [1, 8] [µM] | IC50 [2, 9] [µM] | IC50 [2, 10] [µM] | SMILES | IC50 (fibroblast cells; [11]) [µM] | IC50 (fibroblast cells; [12]) [µM] | percent of TUNEL positive cells [3] [%] | percent of TUNEL positive cells [4] [%] | increase in caspase-3 activity compared with untreated cells [5] | percent of cells with active caspase-3 [5] [%] | percent of cells with active caspase-9 [6] [%] | IC50 ([1]; read-out: IC50 (additional test for cisplatin), MCF-7, 24 h, additional test in concentrations allowing to determine IC50) [µM] | IC50 ([1]; read-out: IC50 (additional test for cisplatin), MCF-7, 48 h, additional test in concentrations allowing to determine IC50) [µM] | IC50 ([2]; read-out: IC50 (additional test for cisplatin), MDA-MB-231, 24 h, additional test in concentrations allowing to determine IC50) [µM] | IC50 ([2]; read-out: IC50 (additional test for cisplatin), MDA-MB-231, 48 h, additional test in concentrations allowing to determine IC50) [µM] | IC50 (fibroblast cells; read-out: IC50 (additional test for cisplatin), 24 h, additional test in concentrations allowing to determine IC50) [µM] | IC50 (fibroblast cells; read-out: IC50 (additional test for cisplatin), 48 h, additional test in concentrations allowing to determine IC50) [µM]
4 | 23 ± 1 | 18 ± 1 | 20 ± 2 | 16 ± 1 | Cc1c[nH][n+]([Pt-2]2([n+]3[nH]cc(C)c3C)[N](c3ccc(C(=N)N)cc3)N=[N+](c3ccc(C(=N)N)cc3)[Pt-2]([n+]3[nH]cc(C)c3C)([n+]3[nH]cc(C)c3C)[N](c3ccc(C(=N)N)cc3)N=[N+]2c2ccc(C(=N)N)cc2)c1C.Cl.Cl.Cl.Cl.O.O [PtPz3, [Pt2(3,4-dimethylpyrazole)4(berenil)2]·4HCl·2H2O] | 32 ± 1 | 28 ± 1 | 46.5 | 50.4 |  | 22.9 | 43.4 |  |  |  |  |  | 
5 | 28 ± 2 | 22 ± 2 | 29 ± 1 | 19 ± 2 | Cc1ccn[nH]1.Cc1ccn[nH]1.Cc1ccn[nH]1.Cc1ccn[nH]1.Cl.Cl.Cl.Cl.N=C(N)c1ccc(N=N[N]([Pt])c2ccc(C(=N)N)cc2)cc1.N=C(N)c1ccc(N=N[N]([Pt])c2ccc(C(=N)N)cc2)cc1.O.O [PtPz5, [Pt2(5-methylpyrazole)4(berenil)2]·4HCl·2H2O] | 35 ± 1 | 31 ± 2 | 32.1 | 31.6 |  | 21.0 | 39.6 |  |  |  |  |  | 
6 | > 50 | 48 ± 2 | > 50 | 39 ± 2 | CCn1ccc[n+]1[Pt-2]1([n+]2cccn2CC)[N](c2ccc(C(=N)N)cc2)N=[N+](c2ccc(C(=N)N)cc2)[Pt-2]([n+]2cccn2CC)([n+]2cccn2CC)[N](c2ccc(C(=N)N)cc2)N=[N+]1c1ccc(C(=N)N)cc1.Cl.Cl.Cl.Cl.O.O [PtPz6, [Pt2(N-ethylpyrazole)4(berenil)2]·4HCl·2H2O] | > 50 | > 50 | 14.2 | 13.2 |  | 11.0 | 24.1 |  |  |  |  |  | 
